From patent publication US20250019503A1, “METAL COMPLEXED CYANURATE GERMICIDAL ADDITIVE FOR POLYMER COMPOSITIONS” (SABIC Global Technologies B.V., priority 2022, published 2025)

For `O=c1[n-]c(=O)n(Cl)c(=O)n1Cl.O=c1[n-]c(=O)n(Cl)c(=O)n1Cl.O=c1[n-]c(=O)n(Cl)c(=O)n1Cl.O=c1[n-]c(=O)n(Cl)c(=O)n1Cl.[Cu+2].[Na+].[Na+]` [CuDCC, Copper Dichlorocyanurate], the hygroscopicity (based on lack of mass loss between 55° C. to 133° C.) was “not hydroscopic”.

With `O=c1nc([O-])n(Cl)c(=O)n1Cl.[Na+]` [NaDCC, sodium dichlorocyanurate] the “most extensive mass loss” value (at 240° C. to 300° C., attributed to pyrolysis/oxidations) was about 40% and the mass loss (between 55° C. to 100° C., nitrogen and air, attributed to absorbed water) was “around 7%”.
